Data reported in patent US8207204B2, “Triazole derivatives as SCD inhibitors” (GlaxoSmithKline LLC, priority 2007, dated 2012).
Structures can show the parent of a compound that is named as a salt.

SMILES	melting point [°C]
COc1ccc2nc(NC(=O)c3nnn(Cc4ccc(Cl)c(Cl)c4)c3C)sc2c1	225
Cc1c(C(=O)Nc2nc3[nH]c(=O)[nH]c(=O)c3s2)nnn1Cc1ccc(Cl)c(Cl)c1	279.9
Cc1nc(NC(=O)c2nnn(Cc3ccc(Cl)c(Cl)c3)c2C)sc1C(=O)NCCN(C)C.Cl	121
CCOC(=O)c1nnc(NC(=O)c2nnn(Cc3ccc(Cl)c(Cl)c3)c2C)s1 [Example 3, Ethyl 5-[({1-[(3,4-dichlorophenyl)methyl]-5-methyl-1H-1,2,3-triazol-4-yl}carbonyl)amino]-1,3,4-thiadiazole-2-carboxylate]	203.8
COC(=O)c1cnc(NC(=O)c2nnn(Cc3ccc(Cl)c(Cl)c3)c2C)s1 [Example 4, Methyl 2-[({1-[(3,4-dichlorophenyl)methyl]-5-methyl-1H-1,2,3-triazol-4-yl}carbonyl)amino]-1,3-thiazole-5-carboxylate]	212
Cc1c(C(=O)Nc2ncc(C=O)s2)nnn1Cc1ccc(Cl)c(Cl)c1 [Example 5, 1-[(3,4-Dichlorophenyl)methyl]-N-(5-formyl-1,3-thiazol-2-yl)-5-methyl-1H-1,2,3-triazole-4-carboxamide]	> 260
Cc1nnc(NC(=O)c2nnn(Cc3ccc(Cl)c(Cl)c3)c2C)o1 [Example 6, 1-[(3,4-Dichlorophenyl)methyl]-5-methyl-N-(5-methyl-1,3,4-oxadiazol-2-yl)-1H-1,2,3-triazole-4-carboxamide]	192.2
COCc1nnc(NC(=O)c2nnn(Cc3ccc(Cl)c(Cl)c3)c2C)s1 [Example 7, 1-[(3,4-Dichlorophenyl)methyl]-5-methyl-N-{5-[(methyloxy)methyl]-1,3,4-thiadiazo1-2-yl}-1H-1,2,3-triazole-4-carboxamide]	178.3
COC(=O)Cc1csc(NC(=O)c2nnn(Cc3ccc(Cl)c(Cl)c3)c2C)n1 [Example 8, Methyl {2-[({1-[(3,4-dichlorophenyl)methyl]-5-methyl-1H-1,2,3-triazol-4-yl}carbonyl)amino]-1,3-thiazol-4-yl}acetate]	158
CCOC(=O)c1sc(NC(=O)c2nnn(Cc3ccc(Cl)c(Cl)c3)c2C)nc1C(F)(F)F [Example 9, Ethyl 2-[({1-[(3,4-dichlorophenyl)methyl]-5-methyl-1H-1,2,3-triazol-4-yl}carbonyl)amino]-4-(trifluoromethyl)-1,3-thiazole-5-carboxylate]	155
Cc1nc(NC(=O)c2nnn(Cc3ccc(Cl)c(Cl)c3)c2C)sc1C [Example 10, 1-[(3,4-Dichlorophenyl)methyl]-N-(4,5-dimethyl-1,3-thiazol-2-yl)-5-methyl-1H-1,2,3-triazole-4-carboxamide]	210.4
CCOC(=O)c1ccc2nc(NC(=O)c3nnn(Cc4ccc(Cl)c(Cl)c4)c3C)sc2c1 [Example 11, Ethyl 2-[({1-[(3,4-dichlorophenyl)methyl]-5-methyl-1H-1,2,3-triazol-4-yl}carbonyl)amino]-1,3-benzothiazole-6-carboxylate]	199
CCOC(=O)Cc1nc(NC(=O)c2nnn(Cc3ccc(Cl)c(Cl)c3)c2C)sc1C [Example 12, Ethyl {2-[({1-[(3,4-dichlorophenyl)methyl]-5-methyl-1H-1,2,3-triazol-4-yl}carbonyl)amino]-5-methyl-1,3-thiazol-4-yl}acetate]	125
COC(=O)c1ccc(NC(=O)c2nnn(Cc3ccc(Cl)c(Cl)c3)c2C)nc1 [Example 14, Methyl 6-[({1-[(3,4-dichlorophenyl)methyl]-5-methyl-1H-1,2,3-triazol-4-yl}carbonyl)amino]-3-pyridinecarboxylate]	179
COC(=O)c1ccnc(NC(=O)c2nnn(Cc3ccc(Cl)c(Cl)c3)c2C)c1 [Example 15, Methyl 2-[({1-[(3,4-dichlorophenyl)methyl]-5-methyl-1H-1,2,3-triazol-4-yl}carbonyl)amino]-4-pyridinecarboxylate]	172
Cc1nc(NC(=O)c2nnn(Cc3ccc(Cl)c(Cl)c3)c2C)sc1C(=O)O [Example 16, 2-[({1-[(3,4-Dichlorophenyl)methyl]-5-methyl-1H-1,2,3-triazol-4-yl}carbonyl)amino]-4-methyl-1,3-thiazole-5-carboxylic acid]	262.6
Cc1c(C(=O)Nc2ncc(C(=O)O)o2)nnn1Cc1ccc(Cl)c(Cl)c1 [Example 17, 2-[({1-[(3,4-Dichlorophenyl)methyl]-5-methyl-1H-1,2,3-triazol-4-yl}carbonyl)amino]-1,3-oxazole-5-carboxylic acid]	201.8
CNC(=O)c1sc(NC(=O)c2nnn(Cc3ccc(Cl)c(Cl)c3)c2C)nc1C [Example 18, 1-[(3,4-Dichlorophenyl)methyl]-5-methyl-N-{4-methyl-5-[(methylamino)carbonyl]-1,3-thiazol-2-yl}-1H-1,2,3-triazole-4-carboxamide]	218.5

Continued, values first:

melting point [°C]	SMILES
144	Cc1nc(NC(=O)c2nnn(Cc3ccc(Cl)c(Cl)c3)c2C)sc1C(=O)N(C)C (as salt: hydrochloride) [Example 28, 1-[(3,4-Dichlorophenyl)methyl]-N-{5-[(dimethylamino)carbonyl]-4-methyl-1,3-thiazo1-2-yl}-5-methyl-1H-1,2,3-triazole-4-carboxamide]
174.3	Cc1nc(NC(=O)c2nnn(Cc3ccc(Cl)c(Cl)c3)c2C)sc1C(=O)NCCC(C)C [Example 19, 1-[(3,4-Dichlorophenyl)methyl]-5-methyl-N-(4-methyl-5-{[(3-methylbutyl)amino]carbonyl}-1,3-thiazol-2-yl)-1H-1,2,3-triazole-4-carboxamide]
204.4	Cc1nc(NC(=O)c2nnn(Cc3ccc(Cl)c(Cl)c3)c2C)sc1C(=O)NC(C)C [Example 20, 1-[(3,4-Dichlorophenyl)methyl]-5-methyl-N-(4-methyl-5-{[(1-methylethyl)amino]carbonyl}-1,3-thiazol-2-yl)-1H-1,2,3-triazole-4-carboxamide]
194.1	CCNC(=O)c1sc(NC(=O)c2nnn(Cc3ccc(Cl)c(Cl)c3)c2C)nc1C [Example 21, 1-[(3,4-Dichlorophenyl)methyl]-N-{5-[(ethylamino)carbonyl]-4-methyl-1,3-thiazol-2-yl}-5-methyl-1H-1,2,3-triazole-4-carboxamide]
259.3	Cc1c(C(=O)Nc2ncc(C(=O)NCCC(C)C)s2)nnn1Cc1ccc(Cl)c(Cl)c1 [Example 23]
202.9	Cc1nc(NC(=O)c2nnn(Cc3ccc(Cl)c(Cl)c3)c2C)sc1C(=O)N1CCOCC1 [Example 24, 1-[(3,4-Dichlorophenyl)methyl]-5-methyl-N-[4-methyl-5-(4-morpholinyl-carbonyl)-1,3-thiazol-2-yl]-1H-1,2,3-triazole-4-carboxamide]
216.9	Cc1nc(NC(=O)c2nnn(Cc3ccc(Cl)c(Cl)c3)c2C)sc1C(=O)N1CCN(C)CC1 [Example 25, 1-[(3,4-Dichlorophenyl)methyl]-5-methyl-N-{4-methyl-5-[(4-methyl-1-piperazinyl)carbonyl]-1,3-thiazo1-2-yl}-1H-1,2,3-triazole-4-carboxamide]
129	COCCNC(=O)c1sc(NC(=O)c2nnn(Cc3ccc(Cl)c(Cl)c3)c2C)nc1C [Example 26, 1-[(3,4-Dichlorophenyl)methyl]-5-methyl-N-[4-methyl-5-({[2-(methyloxy)ethyl]amino}carbonyl)-1,3-thiazol-2-yl]-1H-1,2,3-triazole-4-carboxamide]
166	Cc1nc(NC(=O)c2nnn(Cc3ccc(Cl)c(Cl)c3)c2C)sc1C(=O)NCCO [Example 27, 1-[(3,4-Dichlorophenyl)methyl]-N-(5-{[(2-hydroxyethyl)-amino]carbonyl}-4-methyl-1,3-thiazol-2-yl)-5-methyl-1H-1,2,3-triazole-4-carboxamide]
335.6	CNC(=O)c1cnc(NC(=O)c2nnn(Cc3ccc(Cl)c(Cl)c3)c2C)s1 [Example 29, 1-[(3,4-Dichlorophenyl)methyl]-5-methyl-N-{5-[(methylamino)carbonyl]-1,3-thiazol-2-yl}-1H-1,2,3-triazole-4-carboxamide]
304.9	Cc1c(C(=O)Nc2ncc(C(=O)N(C)C)s2)nnn1Cc1ccc(Cl)c(Cl)c1 [Example 30, 1-[(3,4-Dichlorophenyl)methyl]-N-{5-[(dimethylamino)carbonyl]-1,3-thiazol-2-yl}-5-methyl-1H-1,2,3-triazole-4-carboxamide]
260.4	Cc1c(C(=O)Nc2ncc(C(=O)NCCO)s2)nnn1Cc1ccc(Cl)c(Cl)c1 [Example 31, 1-[(3,4-Dichlorophenyl)methyl]-N-(5-{[(2-hydroxyethyl)-amino]carbonyl}-1,3-thiazol-2-yl)-5-methyl-1H-1,2,3-triazole-4-carboxamide]
234.1	CNC(=O)c1ccnc(NC(=O)c2nnn(Cc3ccc(Cl)c(Cl)c3)c2C)c1 [Example 32, 2-[({1-[(3,4-Dichlorophenyl)methyl]-5-methyl-1H-1,2,3-triazol-4-yl}carbonyl)amino]-N-methyl-4-pyridine-carboxamide]
210.6	CCNC(=O)c1sc(NC(=O)c2cn(Cc3ccc(Cl)c(Cl)c3)nn2)nc1C [Example 33, 1-[(3,4-Dichlorophenyl)methyl]-N-{5-[(ethylamino)carbonyl]-4-methyl-1,3-thiazo1-2-yl}-1H-1,2,3-triazole-4-carboxamide]
210.4	CNC(=O)c1sc(NC(=O)c2cn(Cc3ccc(Cl)c(Cl)c3)nn2)nc1C [Example 34, 1-[(3,4-Dichlorophenyl)methyl]-N-{4-methyl-5-[(methylamino)carbonyl]-1,3-thiazol-2-yl}-1H-1,2,3-triazole-4-carboxamide]
274.8	O=C(Nc1ncc(C(=O)NCCO)s1)c1cn(Cc2ccc(Cl)c(Cl)c2)nn1 [Example 35, 1-[(3,4-Dichlorophenyl)methyl]-N-(5-{[(2-hydroxyethyl)amino]carbonyl}-1,3-thiazol-2-yl)-1H-1,2,3-triazole-4-carboxamide]
280.9	NC(=O)c1cnc(NC(=O)c2cn(Cc3ccc(Cl)c(Cl)c3)nn2)s1 [Example 36, N-[5-(Aminocarbonyl)-1,3-thiazol-2-yl]-1-[(3,4-dichlorophenyl)methyl]-1H-1,2,3-triazole-4-carboxamide]
